For one series, the system named is YUMM1.7 melanoma cells. Description: YUMM1.7 proliferation assay (4 day growth). In kind it is cell-based. As to conditions: 500 nM. On the procedure:
YUMM1.7 cells were cultured for at least 1 passage after thawing and were cultured in DMEM with 5% FBS (Invitrogen) and 1% antibiotic-antimycotic (gibco) at 37C 5% CO2. Proliferation assays were performed by plating 15,000 cells in 12-well plates with 5 replicates per condition tested. Media and drugs were refreshed on Day 2. On Day 4, cells were trypsinized using 0.25 ml 0.05% Trypsin with EDTA (Invitrogen) for 5 minutes to detach from the plate, mixed with 0.75 ml of culture media, and counted using a hemocytometer.
Starting cell numbers were 15,000.

Series [1] is described as follows: Physical stability of amorphous material. In kind it is physicochemical. As to the method:
Amorphous material crystallized to Form A upon exposure to either elevated temperature (within 4 days at 60° C.) or humidity (within 12 days at 75% RH).

The nature of series [2]: Physical stability of Form B (desolvation). In kind it is physicochemical. As to the method:
The physical stability of Form B was investigated. […] Vacuum at 70° C.

A short description of series [3]: Plasma concentration of SRR G-1 in rats after oral dosing (LC-MS/MS). The series is classed as in vivo. As to conditions: rat, PO 10 mg/kg, individual animals (R1-R9). The source says:
The results are shown in Tables 22-24 for each respectively.

A short description of series [4]: Disproportionation of salts in water slurry. The series is classed as physicochemical. The source says: The possibility of disproportionation in water was investigated. […] The excess solids were recovered and reanalyzed by XRPD for evidence of freebase or benzenesulfonic acid.
The possibility of disproportionation in water was investigated. […] The excess solids were recovered and reanalyzed by XRPD for evidence of freebase or naphthalene-2-sulfonic acid.

Series [5] in a line: Approximate solubility of SRR G-1 Form A in solvents. In kind it is physicochemical.
Series [6] is described as follows: Kinetic solubility measurement in bio-relevant media. Particulars: 37° C.; for Form Change: SGF; for solubility at 1 h / solubility at 2 h / solubility at 4 h / solubility at 24 h: thermodynamic from solid. In kind it is physicochemical.
Series [7] in a line: Dynamic Vapor Sorption/Desorption (DVS). The series is classed as physicochemical. The source says: The weight change through the sorption/desorption cycle was less than 0.3% weight. Hysteresis was not observed. The material recovered from the Dynamic Vapor Sorption experiment was Form A by XRPD.
Moisture sorption/desorption data were collected on a VTI SGA-100 Vapor Sorption Analyzer. NaCl and PVP were used as calibration standards. Samples were not dried prior to analysis. Sorption and desorption data were collected over a range from 5% to 95% RH at 10% RH increments under a nitrogen purge. The equilibrium criterion used for analysis was less than 0.0100% weight change in 5 minutes with a maximum equilibration time of 3 hours. Data were not corrected for the initial moisture content of the samples.

Series [8] is described as follows: Solubility measurement in pH buffers. The series is classed as physicochemical. Particulars: 37° C., 24 hrs; for solubility at 24 h: aqueous buffer, thermodynamic from solid, read-out: Solubility; for Form Conversion: XRPD of residual solids.

The structures appear in SMILES notation. Converted amounts (≈) assume the structure as drawn. “And” between values parts separate entries of the source, which are not always exact repeats. Equal entries are not always repeated. Some results are limits rather than exact numbers.

As for `CC(=O)c1ccc2c(c1)[C@@H]1C=CC[C@@H]1[C@H](c1cc3c(cc1Br)OCO3)N2` (racemic) [Racemic G-1, (±)1-(4-(6-bromobenzo[d][1,3]dioxol-5-yl)-(3 aS*,4R*,9bR*)-tetrahydro-3H-cyclopenta[c]quinolin-8-yl)ethan-1-one, reference compound], the “doubling compared with that seen with the vehicle” value with YUMM1.7 melanoma cells (4 days) is listed as “about half”. This molecule also had a Doublings in the series with YUMM1.7 melanoma cells (4 days, starting cell number 15,000) of 3.4. In addition, the “cell count after 4 days of growth (single replicates)” value with YUMM1.7 melanoma cells (starting cell number 15,000, 5 replicates) was 16 tens of thousands and 18 tens of thousands and 19 tens of thousands and 17 tens of thousands and 24 tens of thousands. In addition, in the series on YUMM1.7 melanoma cells (starting cell number 15,000, average of 5 replicates), the “average cell count after 4 days of growth” value is 18.8 tens of thousands.
Take `CC(=O)c1ccc2c(c1)[C@@H]1C=CC[C@@H]1[C@H](c1cc3c(cc1Br)OCO3)N2` [Amorphous material]: the “time to crystallization to Form A” value in series [1] (elevated temperature, 60° C.) is listed as at most 4 days; in series [1] (humidity, 75% RH), at most 12 days.
Take `CC(=O)c1ccc2c(c1)[C@@H]1C=CC[C@@H]1[C@H](c1cc3c(cc1Br)OCO3)N2` [Form B, 1-((3aS,4R,9bR)-4-(6-bromobenzo[d][1,3]dioxol-5-yl)-3a,4,5,9b-tetrahydro-3H-cyclopenta[c]quinolin-8-yl)ethan-1-one]: the desolvation entry in series [2] (exposure to 90 to 100° C. for 25 minutes) is reported as “Almost complete desolvation”; in [2] (exposure to 120° C.) it was “Complete desolvation to Form C”; in series [2] (vacuum at 70° C. (or below)), “not sufficient for desolvation to occur”.
With `CC(=O)c1ccc2c(c1)[C@@H]1C=CC[C@@H]1[C@H](c1cc3c(cc1Br)OCO3)N2.O=S(=O)(O)c1ccccc1` [SRR G-1 Besylate Form A], the “Plasma Conc.” value is 0.0392 µg/mL and 0.0352 µg/mL and 0.0341 µg/mL in series [3] (time 0.500 h); 0.0439 µg/mL and 0.042 µg/mL and 0.0445 µg/mL in series [3] (time 1.00 h); 0.0285 µg/mL and 0.0306 µg/mL and 0.0323 µg/mL in [3] (time 2.00 h); 0.02 µg/mL and 0.0167 µg/mL and 0.0195 µg/mL in series [3] (time 4.00 h); 0.00817 µg/mL and 0.00578 µg/mL and 0.00618 µg/mL in series [3] (time 8.00 h); 0.000837 µg/mL and 0.000668 µg/mL and 0.000647 µg/mL in series [3] (time 24.0 h, LLOQ 0.100 ng/mL). Besides, in [4] (slurried in water for 4 days, XRPD of recovered solids), the disproportionation in water entry is reported as “disproportionation did not occur”.
On to `CC(=O)c1ccc2c(c1)[C@@H]1C=CC[C@@H]1[C@H](c1cc3c(cc1Br)OCO3)N2` [SRR G-1 Form A, 1-((3aS,4R,9bR)-4-(6-bromobenzo[d][1,3]dioxol-5-yl)-3a,4,5,9b-tetrahydro-3H-cyclopenta[c]quinolin-8-yl)ethan-1-one], for which the solubility in series [5] (oil or lipid, sesame oil) was 2 mg/mL (≈ 4850 µM); in series [5] (organic solvent or mixture, ACN), 24 mg/mL (≈ 58200 µM); in series [5] (organic solvent or mixture, DCM), over 89 mg/mL; in series [5] (organic solvent or mixture, DMSO) it was over 203 mg/mL; in series [5] (organic solvent or mixture, EtOAc), over 65 mg/mL; in [5] (organic solvent or mixture, EtOH) it was 7 mg/mL (≈ 17000 µM). Also, the solubility was 4 mg/mL (≈ 9700 µM) in series [5] (organic solvent or mixture, IPA); 6 mg/mL (≈ 14600 µM) in [5] (organic solvent or mixture, MeOH); over 67 mg/mL in [5] (organic solvent or mixture, THF); over 122 mg/mL in [5] (organic solvent or mixture, acetone); 8 mg/mL (≈ 19400 µM) in [5] (organic solvent or mixture, diethyl ether); 40 mg/mL (≈ 97000 µM) in series [5] (organic solvent or mixture, toluene). Also, the solubility in [5] (water) was under 2 mg/mL. Moreover, the “FC (Form Change)” value in series [6] (FaSSIF, 1 h) is “No”; in series [6] (FaSSIF, 2 h), “No”; in series [6] (FaSSIF, 4 h), “No”; in series [6] (FaSSIF, 24 h), “No”; in [6] (FeSSIF, 1 h), “No”; in series [6] (FeSSIF, 2 h), “No”. The “FC (Form Change)” value in series [6] (FeSSIF, 4 h) is “No”; in series [6] (FeSSIF, 24 h), “No”. Further, the “Form Change” value in series [6] (1 h), in [6] (2 h), in [6] (4 h) and in series [6] (24 h) was “No” throughout. The solubility at 1 h in [6] (simulated gastric fluid, SGF (pH 1.8), 1 h) is 0.0059 mg/mL (≈ 14.3 µM); in [6] (FaSSIF (pH 6.5), 1 h), 0.0071 mg/mL (≈ 17.2 µM); in series [6] (FeSSIF (pH 5.0), 1 h) it was 0.036 mg/mL (≈ 87.3 µM). Moreover, the solubility at 2 h is 0.0062 mg/mL (≈ 15 µM) in series [6] (simulated gastric fluid, SGF (pH 1.8), 2 h); 0.0068 mg/mL (≈ 16.5 µM) in series [6] (FaSSIF (pH 6.5), 2 h); 0.037 mg/mL (≈ 89.7 µM) in [6] (FeSSIF (pH 5.0), 2 h). In addition, the solubility at 4 h in series [6] (simulated gastric fluid, SGF (pH 1.8), 4 h) was 0.0066 mg/mL (≈ 16 µM); in [6] (FaSSIF (pH 6.5), 4 h) it was 0.0071 mg/mL (≈ 17.2 µM); in [6] (FeSSIF (pH 5.0), 4 h), 0.038 mg/mL (≈ 92.2 µM). Moreover, the solubility at 24 h in series [6] (simulated gastric fluid, SGF (pH 1.8), 24 h) was 0.0057 mg/mL (≈ 13.8 µM); in series [6] (FaSSIF (pH 6.5), 24 h) it was 0.0073 mg/mL (≈ 17.7 µM); in [6] (FeSSIF (pH 5.0), 24 h) it was 0.037 mg/mL (≈ 89.7 µM); in [8] (pH 2.0 buffer), under 0.00072 mg/mL; in series [8] (pH 3.0 buffer) it was under 0.00072 mg/mL; in series [8] (pH 4.0 buffer), under 0.00072 mg/mL. Moreover, the solubility at 24 h in series [8] (pH 5.0 buffer), in series [8] (pH 6.0 buffer), in [8] (pH 7.0 buffer) and in series [8] (pH 8.0 buffer) was under 0.00072 mg/mL throughout. Also, the hygroscopicity entry in series [7] (DVS isotherm) is reported as “low hygroscopicity”. Besides, in [7] (DVS, 5% to 95% RH), the “weight change through the sorption/desorption cycle” value was “less than 0.3 % weight”. Moreover, the “Form Conversion” value in series [8] (pH 2.0 buffer), in [8] (pH 3.0 buffer), in [8] (pH 4.0 buffer), in series [8] (pH 5.0 buffer), in series [8] (pH 6.0 buffer) and in series [8] (pH 7.0 buffer) was “No” throughout. In addition, the “Form Conversion” value in series [8] (pH 8.0 buffer) is “No”.
For the molecule `CC(=O)c1ccc2c(c1)[C@@H]1C=CC[C@@H]1[C@H](c1cc3c(cc1Br)OCO3)N2.O=S(=O)(O)c1ccc2ccccc2c1` [SRR G-1 Napsylate Form A], the “Plasma Conc.” value was 0.0622 µg/mL and 0.0506 µg/mL and 0.0226 µg/mL in [3] (time 0.500 h); 0.0819 µg/mL and 0.0675 µg/mL and 0.0332 µg/mL in series [3] (time 1.00 h); 0.0466 µg/mL and 0.0399 µg/mL and 0.0243 µg/mL in [3] (time 2.00 h); 0.0146 µg/mL and 0.014 µg/mL and 0.0156 µg/mL in series [3] (time 4.00 h); 0.00545 µg/mL and 0.00609 µg/mL and 0.00397 µg/mL in series [3] (time 8.00 h); 0.000641 µg/mL and 0.000558 µg/mL and 0.000435 µg/mL in series [3] (time 24.0 h, LLOQ 0.100 ng/mL). The disproportionation in water entry in series [4] (slurried in water for 5 days, XRPD of recovered solids (freebase Form A recovered)) was “disproportionation occurred”.

Source of the values: patent US10934277B2, “Enantiomerically purified GPER agonist for use in treating disease states and conditions” (Linnaeus Therapeutics, Inc., priority 2018, dated 2021).
